Measurements from the supplement of paper PMC13380429.

What was measured:
Settings in all cases: 72 h
[1] = system: Calu-3; assay: drug sensitivity score (DSS) for viability; higher = more toxic; extreme values may be limits of the assay
[2] = system: Vero E6; assay: as above
[3] = system: U2OS; assay: as above
[4] = system: HepG2; assay: as above
[5] = system: Caco-2; assay: as above
[6] = system: Calu-3; assay: relative viability EC50 (midpoint between 100% and the lowest measured viability); higher = less toxic
[7] = system: Vero E6; assay: as above
[8] = system: U2OS; assay: as above
[9] = system: HepG2; assay: as above
[10] = system: Caco-2; assay: as above
[11] = system: Calu-3; assay: cell viability relative to DMSO; higher = less toxic
[12] = system: Vero E6; assay: as above
[13] = system: U2OS; assay: as above
[14] = system: HepG2; assay: as above
[15] = system: Caco-2; assay: as above

Row | SMILES | drug sensitivity score [1] | drug sensitivity score [2] | drug sensitivity score [3] | drug sensitivity score [4] | drug sensitivity score [5] | relative viability EC50 [6] | relative viability EC50 [7] | relative viability EC50 [8] | relative viability EC50 [9] | relative viability EC50 [10] | cell viability ([11]; 1 nM) | cell viability ([11]; 10 nM) | cell viability ([11]; 100 nM) | cell viability ([11]; 1000 nM) | cell viability ([11]; 10000 nM) | cell viability ([12]; 1 nM) | cell viability ([12]; 10 nM) | cell viability ([12]; 100 nM) | cell viability ([12]; 1000 nM) | cell viability ([12]; 10000 nM) | cell viability ([13]; 1 nM) | cell viability ([13]; 10 nM) | cell viability ([13]; 100 nM) | cell viability ([13]; 1000 nM) | cell viability ([13]; 10000 nM) | cell viability ([14]; 1 nM) | cell viability ([14]; 10 nM) | cell viability ([14]; 100 nM) | cell viability ([14]; 1000 nM) | cell viability ([14]; 10000 nM) | cell viability ([15]; 1 nM) | cell viability ([15]; 10 nM) | cell viability ([15]; 100 nM) | cell viability ([15]; 1000 nM) | cell viability ([15]; 10000 nM)
1 | CCCCOc1ccc(C(=O)Nc2ccc(F)cc2F)cc1 | 0 | 0 | 0 | 0 | 0 | > 10 µM | > 10 µM | > 10 µM | > 10 µM | > 10 µM | 107% | 97.1% | 109% | 99.2% | 95.5% | 99.2% | 102% | 98.4% | 99.7% | 101% | 98.1% | 98.2% | 101% | 96.6% | 99.5% | 100% | 98.2% | 101% | 90.7% | 97.6% | 105% | 106% | 104% | 92.6% | 96.5%
2 | COC(=O)N[C@H](C(=O)N1CCC[C@H]1C(=O)Nc1ccc([C@@H]2CC[C@@H](c3ccc(NC(=O)[C@@H]4CCCN4C(=O)[C@@H](NC(=O)OC)C(C)C)cc3)N2c2ccc(C(C)(C)C)cc2)cc1)C(C)C [ombitasvir] | 0 | 0 | 0.3 | 0 | 0 | > 10 µM | > 10 µM | > 10 µM | > 10 µM | > 10 µM | 105% | 100% | 108% | 98.1% | 91.7% | 99.8% | 96.2% | 94.2% | 94.9% | 102% | 94.3% | 95.1% | 100% | 98% | 86.5% | 99.4% | 100% | 92.1% | 92.3% | 108% | 96% | 104% | 95.1% | 96.8% | 100%
3 | CC(C)(C)C(=O)OCOC(=O)[C@@H]1N2C(=O)C[C@H]2S(=O)(=O)C1(C)C [sulbactam-pivoxil] | 0 | 0 | 0 | 0 | 0 | > 10 µM | > 10 µM | > 10 µM | > 10 µM | > 10 µM | 98.5% | 97.4% | 109% | 108% | 101% | 99.3% | 104% | 100% | 99.1% | 99.2% | 95.7% | 96.6% | 94.9% | 98.6% | 95.3% | 98.2% | 100% | 96.2% | 105% | 103% | 99.3% | 90.6% | 93.5% | 98.6% | 101%
4 | O=C1NC(=O)C(c2ccccc2[N+](=O)[O-])=C1Nc1ccc(O)c(Cl)c1 | 0 | 0 | 0 | 0 | 0 | > 10 µM | > 10 µM | > 10 µM | > 10 µM | > 10 µM | 91.4% | 91.9% | 94.4% | 85.9% | 88.9% | 101% | 103% | 98.8% | 105% | 105% | 93.5% | 94.9% | 101% | 103% | 104% | 102% | 97.1% | 95.5% | 104% | 100% | 98.1% | 94.3% | 104% | 95.7% | 107%
5 | N[C@@H](C(=O)O)[C@@H](OCc1ccccc1)C(=O)O.N[C@H](C(=O)O)[C@H](OCc1ccccc1)C(=O)O [TBOA-(DL)] | 0 | 0 | 0 | 0.3 | 0 | > 10 µM | > 10 µM | > 10 µM | > 10 µM | > 10 µM | 96.7% | 87.8% | 92.4% | 98.4% | 109% | 104% | 100% | 101% | 96.6% | 98.8% | 99.5% | 101% | 97.2% | 95% | 99.2% | 100% | 94.1% | 91.5% | 96.6% | 82.5% | 96.3% | 94.6% | 89.8% | 90.2% | 92.4%
6 | CCC(=O)O[C@]1(C(=O)CCl)[C@@H](C)C[C@H]2[C@@H]3C[C@H](F)C4=CC(=O)C=C[C@]4(C)[C@@]3(F)[C@@H](O)C[C@@]21C [halobetasol-propionate] | 0 | 0 | 0 | 0 | 0 | > 10 µM | > 10 µM | > 10 µM | > 10 µM | > 10 µM | 81.1% | 82.1% | 77.5% | 93.1% | 80% | 99.9% | 101% | 104% | 102% | 106% | 96.7% | 102% | 95.8% | 101% | 93.6% | 106% | 93.9% | 102% | 98.1% | 111% | 105% | 105% | 104% | 108% | 99.4%
7 | CN(CCOc1ccc(-c2ccc3c(c2)OCO3)cc1C(C)(C)C)CC(=O)O | 0 | 0 | 0 | 0 | 0 | > 10 µM | > 10 µM | > 10 µM | > 10 µM | > 10 µM | 100% | 95.1% | 93.9% | 103% | 107% | 99.3% | 97.6% | 97.6% | 95.3% | 98.7% | 93.9% | 98.5% | 97.5% | 101% | 100% | 95.8% | 89.7% | 110% | 92.9% | 110% | 104% | 102% | 94.2% | 92.8% | 89.8%
